The target of data set [1] is Histamine H3 receptor (Rattus norvegicus, UniProt Q9QYN8). In words: Displacement of N-[3H]methylhistamine from histamine H3 receptor in rat cortex membrane. In kind it is cell membranes.
Data set [2] deals with hERG (KCNH2) (Homo sapiens, UniProt Q12809). Description: Inhibition of human ERG at 3 uM by patch clamp assay. On the technique in general: Patch clamp records ionic current or voltage across a cell membrane.
Data set [3] is described as follows: Oral bioavailability in Sprague-Dawley rat at 10 mg/kg, po up to 21 hrs. It is filed as ADME, organism-based. The settings on record: in vivo.
For data set [4], the target named is Histamine H1 receptor (Homo sapiens) (UniProt P35367). Description: Binding affinity to human histamine H1 receptor at 1 uM.
Sequence of Histamine H1 receptor (Homo sapiens) (P35367 whole entry): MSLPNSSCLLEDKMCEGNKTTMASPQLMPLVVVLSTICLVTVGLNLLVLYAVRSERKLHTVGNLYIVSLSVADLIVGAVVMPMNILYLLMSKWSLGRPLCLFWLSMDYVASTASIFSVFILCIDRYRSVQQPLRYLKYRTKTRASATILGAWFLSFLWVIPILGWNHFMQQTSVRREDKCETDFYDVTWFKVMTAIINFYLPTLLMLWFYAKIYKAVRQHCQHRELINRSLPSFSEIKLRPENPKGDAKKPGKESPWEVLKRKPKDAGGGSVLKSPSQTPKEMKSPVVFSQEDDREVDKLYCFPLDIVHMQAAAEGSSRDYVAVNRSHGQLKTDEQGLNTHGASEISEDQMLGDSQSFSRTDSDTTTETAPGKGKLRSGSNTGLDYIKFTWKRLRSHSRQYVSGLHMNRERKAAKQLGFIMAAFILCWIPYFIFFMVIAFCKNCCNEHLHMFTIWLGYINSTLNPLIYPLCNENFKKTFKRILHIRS
Data set [5] is described as follows: Half life in Sprague-Dawley rat at 10 mg/kg, po up to 21 hrs. In kind it is ADME, organism-based. The arrangement: dose 10 mg/kg, route oral. The settings on record: in vivo.
The nature of data set [6]: Drug level in Sprague-Dawley rat brain at 10 mg/kg, po after 0.5 hrs. It is filed as ADME, organism-based. The arrangement: dose 10 mg/kg, route oral. As to conditions: read-out: Drug uptake.
For data set [7], the system named is Rattus norvegicus. In words: Inhibition of (R)-alpha-methyl histamine induced drinking in Sprague-Dawley rat dipsogenia model at 1 mg/kg, po administered 0.5 hrs before (R)-alpha-methyl histamine challenge. In kind it is functional.
Data set [8] addresses Histamine H4 receptor (Homo sapiens) (UniProt Q9H3N8). Description: Binding affinity to human histamine H4 receptor at 1 uM.
Data set [9] has as its system Rattus norvegicus. Description: Inhibition of (R)-alpha-methyl histamine induced drinking in Sprague-Dawley rat dipsogenia model at 3 mg/kg, po administered 0.5 hrs before (R)-alpha-methyl histamine challenge. In kind it is functional.
The nature of data set [10]: Plasma concentration in Sprague-Dawley rat at 10 mg/kg, po after 0.5 hrs. In kind it is ADME, organism-based. The arrangement: dose 10 mg/kg, route oral.
Data set [11] is described as follows: in vivo. The settings on record: Sprague-Dawley, rat, brain/plasma, po, 10 mg/kg.
The nature of data set [12]: Tmax in Sprague-Dawley rat at 10 mg/kg, po up to 21 hrs. In kind it is ADME, organism-based. The arrangement: dose 10 mg/kg, route oral. The settings on record: in vivo.
Data set [13] has as its target Histamine H2 receptor (Homo sapiens) (UniProt P25021). Description: Binding affinity to human histamine H2 receptor at 1 uM.
Data set [14] concerns Rattus norvegicus. Description: Increase in wakefulness in Sprague-Dawley rat at 1 mg/kg, po administered 4 hrs after lights out condition measured over 5 hrs period by polysomnographic method. In kind it is functional.
For data set [15], the system named is Rattus norvegicus. Description: Increase in wakefulness in Sprague-Dawley rat at 0.1 mg/kg, po administered 4 hrs after lights out condition measured over 5 hrs period by polysomnographic method. In kind it is functional, organism-based. Details: dose 0.1 mg/kg.
Data set [16] deals with Brain. Description: Drug level in Sprague-Dawley rat brain assessed as 4'-[2-((R)-2-Methyl-pyrrolidin-1-yl)-ethyl]-biphenyl-4-sulfonic Acid Amide level at 1 mg/kg, po after 3.5 hrs. As to conditions: in vivo. The arrangement: dose 1 mg/kg, route oral. In kind it is ADME, organism-based.
For data set [17], the system named is Rattus norvegicus. In words: Inhibition of (R)-alpha-methyl histamine induced drinking in Sprague-Dawley rat dipsogenia model at 0.3 mg/kg, po administered 0.5 hrs before (R)-alpha-methyl histamine challenge. In kind it is functional.

Results on 22 molecules are retold here after ChEMBL document CHEMBL1153532, “Design and evaluation of novel biphenyl sulfonamide derivatives with potent histamine H(3) receptor inverse agonist activity” (J Med Chem, 2009).

Each structure is given as a SMILES string. The source made the active and inactive calls. The calls are words filed in the database; no cut-off is given here.

Sequence of hERG (KCNH2) (Q12809 whole entry): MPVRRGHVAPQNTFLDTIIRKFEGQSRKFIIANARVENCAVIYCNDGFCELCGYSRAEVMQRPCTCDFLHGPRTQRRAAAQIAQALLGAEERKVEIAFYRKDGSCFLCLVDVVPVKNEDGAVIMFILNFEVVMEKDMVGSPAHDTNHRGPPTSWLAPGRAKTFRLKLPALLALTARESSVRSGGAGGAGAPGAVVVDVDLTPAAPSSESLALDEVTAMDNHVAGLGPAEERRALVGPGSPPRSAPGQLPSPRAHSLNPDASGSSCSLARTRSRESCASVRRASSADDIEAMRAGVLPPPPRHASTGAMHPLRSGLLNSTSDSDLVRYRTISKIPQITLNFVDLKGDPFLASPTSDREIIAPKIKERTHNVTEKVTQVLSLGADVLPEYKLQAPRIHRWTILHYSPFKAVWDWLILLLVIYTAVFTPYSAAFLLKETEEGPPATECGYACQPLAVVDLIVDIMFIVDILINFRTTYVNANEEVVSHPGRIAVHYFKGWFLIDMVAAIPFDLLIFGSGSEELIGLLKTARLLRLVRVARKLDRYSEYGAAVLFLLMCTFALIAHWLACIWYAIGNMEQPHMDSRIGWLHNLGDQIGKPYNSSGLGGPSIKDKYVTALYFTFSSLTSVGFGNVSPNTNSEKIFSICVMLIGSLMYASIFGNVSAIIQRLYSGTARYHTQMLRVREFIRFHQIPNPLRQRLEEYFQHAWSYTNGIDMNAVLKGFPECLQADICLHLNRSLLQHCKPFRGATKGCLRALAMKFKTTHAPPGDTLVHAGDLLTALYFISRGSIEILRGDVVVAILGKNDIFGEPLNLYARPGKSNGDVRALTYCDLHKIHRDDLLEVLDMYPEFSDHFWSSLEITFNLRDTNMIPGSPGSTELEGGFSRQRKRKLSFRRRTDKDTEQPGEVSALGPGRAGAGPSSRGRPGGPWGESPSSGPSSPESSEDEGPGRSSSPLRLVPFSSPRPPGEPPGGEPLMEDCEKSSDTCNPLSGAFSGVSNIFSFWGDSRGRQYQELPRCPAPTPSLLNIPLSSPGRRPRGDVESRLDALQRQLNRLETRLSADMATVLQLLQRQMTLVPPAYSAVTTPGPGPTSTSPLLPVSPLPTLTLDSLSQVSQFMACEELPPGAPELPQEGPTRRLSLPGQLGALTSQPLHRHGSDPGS
Sequence of Histamine H3 receptor (Q9QYN8 whole entry): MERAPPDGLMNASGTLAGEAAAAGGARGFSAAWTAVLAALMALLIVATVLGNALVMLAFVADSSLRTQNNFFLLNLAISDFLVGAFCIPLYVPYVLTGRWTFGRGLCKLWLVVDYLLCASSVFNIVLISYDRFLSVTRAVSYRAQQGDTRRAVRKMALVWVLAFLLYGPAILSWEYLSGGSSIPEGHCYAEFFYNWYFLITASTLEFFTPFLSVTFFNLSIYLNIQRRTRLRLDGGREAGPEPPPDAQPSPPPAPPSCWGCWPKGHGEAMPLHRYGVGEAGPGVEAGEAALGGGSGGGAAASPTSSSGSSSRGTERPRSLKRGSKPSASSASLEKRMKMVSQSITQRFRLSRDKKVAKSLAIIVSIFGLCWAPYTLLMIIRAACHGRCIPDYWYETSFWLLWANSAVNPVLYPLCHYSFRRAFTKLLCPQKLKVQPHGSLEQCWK
Sequence of Histamine H4 receptor (Homo sapiens) (Q9H3N8 whole entry): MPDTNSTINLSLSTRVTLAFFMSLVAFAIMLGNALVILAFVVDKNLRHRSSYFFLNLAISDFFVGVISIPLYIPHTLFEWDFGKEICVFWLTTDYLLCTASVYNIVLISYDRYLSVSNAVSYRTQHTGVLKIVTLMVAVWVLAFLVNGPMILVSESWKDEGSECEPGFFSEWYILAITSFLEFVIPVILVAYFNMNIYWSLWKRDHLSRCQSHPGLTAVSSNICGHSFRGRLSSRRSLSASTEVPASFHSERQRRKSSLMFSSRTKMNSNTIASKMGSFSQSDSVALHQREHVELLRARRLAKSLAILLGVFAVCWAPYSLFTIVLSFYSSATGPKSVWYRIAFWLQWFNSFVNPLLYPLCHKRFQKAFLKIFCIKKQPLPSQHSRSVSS
Sequence of Histamine H2 receptor (Homo sapiens) (P25021 whole entry): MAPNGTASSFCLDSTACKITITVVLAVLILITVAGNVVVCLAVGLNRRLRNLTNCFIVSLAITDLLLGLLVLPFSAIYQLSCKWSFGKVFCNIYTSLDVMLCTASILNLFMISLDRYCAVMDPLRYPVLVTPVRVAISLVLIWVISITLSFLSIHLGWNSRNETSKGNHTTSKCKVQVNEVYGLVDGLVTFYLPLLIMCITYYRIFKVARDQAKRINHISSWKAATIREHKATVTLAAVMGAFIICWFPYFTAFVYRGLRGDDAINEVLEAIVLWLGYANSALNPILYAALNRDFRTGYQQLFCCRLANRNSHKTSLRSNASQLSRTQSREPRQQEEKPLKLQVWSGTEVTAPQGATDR

Consider `CCN(CC)S(=O)(=O)c1ccc(-c2ccc(CCN3CCC[C@H]3C)cc2)cc1`, for which the Ki in [1] (read-out: pKi (converted)) was 1.41 nM.
For the molecule `C[C@@H]1CCCN1CCc1ccc(-c2ccc(S(=O)(=O)NCc3ccccc3)cc2)cc1`, the Ki in data set [1] (read-out: pKi (converted)) was […]. In data set [2], 3 µM produced 84% inhibition.
In the case of `C[C@@H]1CCCN1CCc1ccc(-c2ccc(S(=O)(=O)NC3CCOCC3)cc2)cc1`, in data set [3], the bioavailability (usually the share of a dose that reaches the circulation, judged against a reference dose that is usually intravenous) is 62%. Further, in [1] (read-out: Ki), the Ki was determined as 2 nM. In addition, the Activity in data set [4], in data set [8] and in data set [13] was under 10% each time. Also, the half-life (commonly the time in which the quantity being followed falls by half) in data set [5] was 2.3 h. In addition, the concentration at 0.5 h in data set [6] worked out at 140 ng/mL; in data set [10] it was 440 ng/mL. Moreover, 1 mg/kg produced 77.5% inhibition in vivo in data set [7]. In data set [9], the inhibition in vivo (as a rule, how much of the control response was suppressed) at 3 mg/kg came to 85.1%. The Kp (in general, the ratio of the level in a tissue or fluid to that in plasma or blood) at 0.5 h in data set [11] stood at 0.32. Moreover, the Tmax (usually the time at which the peak concentration occurs) in data set [12] was 0.8 h.
For `C[C@@H]1CCCN1CCc1ccc(-c2ccc(S(=O)(=O)NCc3ccncc3)cc2)cc1`, the Ki in [1] (read-out: pKi (converted)) is 0.182 nM. In [2], at 3 µM the inhibition was 27%.
As for `CC1COCC(C)N1S(=O)(=O)c1ccc(-c2ccc(CCN3CCC[C@H]3C)cc2)cc1` (some centres undefined), the Ki in data set [1] (read-out: pKi (converted)) is […].
Same read-out and setting: the figure for `CC(C)NS(=O)(=O)c1cccc(-c2ccc(CCN3CCC[C@H]3C)cc2)c1` is 7.94 nM.
For `C[C@@H]1CCCN1CCc1ccc(-c2ccc(S(=O)(=O)NC(C)(C)CO)cc2)cc1`, in [2], testing at 3 µM gave an inhibition of 37%.
As for `CCNS(=O)(=O)c1cccc(-c2ccc(CCN3CCC[C@H]3C)cc2)c1`, the Ki in data set [1] (read-out: pKi (converted)) is 11 nM.
Still for that read-out and setting: then `C[C@@H]1CCCN1CCc1ccc(-c2ccc(S(=O)(=O)N3CCCCC3)cc2)cc1`, with […].
Regarding `COCCNS(=O)(=O)c1ccc(-c2ccc(CCN3CCC[C@H]3C)cc2)cc1`, in [3], the bioavailability is 22%. Besides, the Ki in data set [1] (read-out: Ki) worked out at 3 nM. Also, in data set [2], the inhibition (in general, the drop in the measured response relative to a control, in per cent) at 3 µM was 29%. For the same molecule, in data set [5], the half-life is 2.6 h. Further, the concentration at 0.5 h in data set [6] was determined as 8700 ng/mL; in data set [10], 11200 ng/mL. This molecule also had an inhibition in vivo at 1 mg/kg in data set [7] of 40.7%. This molecule returned an inhibition in vivo at 3 mg/kg in data set [9] of 96.7%. In data set [11], this molecule returned a Kp at 0.5 h of 0.78. Moreover, the Tmax in data set [12] was 0.2 h.
In the case of `C[C@@H]1CCCN1CCc1ccc(-c2cccc(S(=O)(=O)N3CCCCC3)c2)cc1`, in data set [1] (read-out: pKi (converted)), the Ki was 12.6 nM.
On to `C[C@@H]1CCCN1CCc1ccc(-c2ccc(S(=O)(=O)N3CCS(=O)(=O)CC3)cc2)cc1`, for which the Ki in data set [1] (read-out: pKi (converted)) is 0.933 nM.
For the molecule `C[C@@H]1CCCN1CCc1ccc(-c2ccc(S(N)(=O)=O)cc2)cc1`, the Ki in data set [1] (read-out: pKi (converted)) was […]. In [6], the concentration at 0.5 h came out at 800 ng/g.
`C[C@@H]1CCCN1CCc1ccc(-c2ccc(S(=O)(=O)N3Cc4ccccc4C3)cc2)cc1`: the Ki in data set [1] (read-out: pKi (converted)) was 0.501 nM.
Consider `CCNS(=O)(=O)c1ccc(-c2ccc(CCN3CCC[C@H]3C)cc2)cc1`, for which the bioavailability in data set [3] is 93%. Further, the Activity was under 10% in [4], 40% in [14], under 10% in data set [8] and under 10% in data set [13]. The outcome in [15] was inactive. In data set [5], this molecule had a half-life of 1.8 h. Further, the concentration at 0.5 h came out at 3600 ng/mL in [6] and 1600 ng/mL in data set [10]. This molecule also displayed an inhibition in vivo at 1 mg/kg in [7] of 77.6%. In data set [9], this molecule returned an inhibition in vivo at 3 mg/kg of 69.6%. Also, in data set [16], the Drug uptake worked out at 246 ng/mL. The same molecule showed a Kp at 0.5 h in data set [11] of 2.3. For the same molecule, in data set [12], the Tmax was 0.5 h.
As for `C[C@@H]1CCCN1CCc1ccc(-c2ccc(S(=O)(=O)NCC3CC3)cc2)cc1`, in data set [2], the inhibition at 3 µM came to 54%.
Molecule `C[C@@H]1CCCN1CCc1ccc(-c2ccc(S(=O)(=O)N3CCOCC3)cc2)cc1` came in with a bioavailability in [3] of 12%. The Ki in data set [1] (read-out: Ki) amounted to 2 nM. Also, the Activity in [4], in [8] and in data set [13] was under 10% throughout. In data set [17], this molecule returned an inhibition in vivo at 0.3 mg/kg of 34.1%. Further, in data set [5], the half-life is 1.2 h. Besides, the concentration at 0.5 h worked out at 320 ng/mL in data set [6] and 160 ng/mL in data set [10]. The same molecule showed an inhibition in vivo at 1 mg/kg in data set [7] of 99.8%. Besides, in [12], the Tmax was determined as 1.7 h.
Take `C[C@@H]1CCCN1CCc1ccc(-c2ccc(S(=O)(=O)NC3CCC3)cc2)cc1`: the Ki in data set [1] (read-out: pKi (converted)) was […]. The molecule also came in with an inhibition at 3 µM in [2] of 79%.
`CCN(CC)S(=O)(=O)c1cccc(-c2ccc(CCN3CCC[C@H]3C)cc2)c1`: the Ki in [1] (read-out: pKi (converted)) is 16.2 nM.
Still for that read-out and setting: then `COC[C@H]1CCCN1S(=O)(=O)c1ccc(-c2ccc(CCN3CCC[C@H]3C)cc2)cc1`, with […]; and `COC1CCN(S(=O)(=O)c2ccc(-c3ccc(CCN4CCC[C@H]4C)cc3)cc2)CC1`, with […].
Regarding `C[C@@H]1CCCN1CCc1ccc(-c2ccc(S(=O)(=O)N3CC[C@H](O)C3)cc2)cc1`, the Ki in data set [1] (read-out: pKi (converted)) is 2.45 nM.
